Measured values from PubChem BioAssay (NCI).
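Growth conditions: 96-well plates. Treatment: test compound, 48 hours, 5 concentrations. Analysis: linear interpolation between bracketing concentrations; unreached endpoints set to highest concentration. GI50: concentration for 50% inhibition of growth. TGI denotes the concentration required for complete inhibition of growth.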

Key:
Experiment in all cases: NCI anticancer screen, dose series, 48 h
TK-10 renal = tested on: TK-10 renal
SK-MEL-28 melanoma = tested on: SK-MEL-28 melanoma
OVCAR-5 ovarian = tested on: OVCAR-5 ovarian
EKVX NSCLC = tested on: EKVX NSCLC
RXF 393 renal = tested on: RXF 393 renal
NCI-H23 lung = tested on: NCI-H23 lung
SF-295 CNS = tested on: SF-295 CNS
IGROV1 ovarian = tested on: IGROV1 ovarian
MDA-MB-435 = tested on: MDA-MB-435
OVCAR-3 ovarian = tested on: OVCAR-3 ovarian
SNB-75 CNS = tested on: SNB-75 CNS

SMILES	TGI (TK-10 renal)	TGI (SK-MEL-28 melanoma)	TGI (OVCAR-5 ovarian)	TGI (EKVX NSCLC)	TGI (RXF 393 renal)	TGI (NCI-H23 lung)	TGI (SF-295 CNS)	TGI (IGROV1 ovarian)	TGI (MDA-MB-435)	TGI (OVCAR-3 ovarian)	TGI (SNB-75 CNS)	GI50 (TK-10 renal)	GI50 (SK-MEL-28 melanoma)	GI50 (OVCAR-5 ovarian)	GI50 (SNB-75 CNS)	GI50 (SF-295 CNS)	GI50 (IGROV1 ovarian)	GI50 (MDA-MB-435)	GI50 (OVCAR-3 ovarian)
COC(=O)c1c(O)ccc2c1c1cc3ccccc3c(O)c1n2CCc1ccc(OC)c(OC)c1	> 100 µM	91.1 µM	> 100 µM	> 100 µM	> 100 µM	> 100 µM	> 100 µM	> 100 µM	> 100 µM	> 100 µM									
CN1CCC(C(O)(c2ccccc2)c2ccc(Br)cc2)CC1 (stereo not drawn)	98.7 µM	35.1 µM	93.3 µM	> 100 µM	64.4 µM	> 100 µM	45.7 µM	> 100 µM	30.7 µM	> 100 µM	91.5 µM								
CCc1n[nH]c(=O)n1/N=C(\C)c1ccccc1	> 100 µM	> 100 µM	> 100 µM	> 100 µM	> 100 µM	> 100 µM	> 100 µM	> 100 µM	> 100 µM	> 100 µM									
CN(CCc1ccccn1)c1ccc2c(c1)C(=O)c1ccccc1-2	> 100 µM	> 100 µM	> 100 µM	> 100 µM	> 100 µM	> 100 µM	> 100 µM	> 100 µM	> 100 µM	> 100 µM	> 100 µM								
CC(=O)Nc1cccc(N2C(=O)/C(=C\c3cccc(Oc4ccccc4)c3)SC2c2ccccc2)c1 (stereo not drawn)	> 100 µM	> 100 µM	> 100 µM	> 100 µM	> 100 µM	> 100 µM	> 100 µM		> 100 µM	> 100 µM									
C=C1C(O)C2(O)OCC34C(CC5C(C)=CC(=O)C(O)C5(C)C23)OC(=O)C(OC(=O)C/C=C/CCCCCCCC)C14 (stereo not drawn)		0.0311 µM	0.773 µM	0.027 µM	0.0211 µM	0.0815 µM		0.0303 µM			0.0667 µM								
CCOc1nc2c(N3CCCC3)nc(N3CCNCC3)nc2nc1NCc1ccccc1	5.58 µM	3.37 µM	16.3 µM	4.33 µM	2.29 µM	3.45 µM	3.37 µM	2.64 µM	2.72 µM	2.32 µM	2.46 µM								
O=C(O)c1cc2ccccc2c(N=Nc2ccc(S(=O)(=O)Nc3ncccn3)cc2)c1O	> 100 µM	> 100 µM	> 100 µM	> 100 µM	> 100 µM		> 100 µM	> 100 µM	> 100 µM	> 100 µM	> 100 µM								
O=C(Cc1nc2ccccc2[nH]c1=O)c1c[nH]c2ccccc12	34.1 µM		57.1 µM	> 100 µM	46.1 µM	> 100 µM	35 µM	> 100 µM	> 100 µM	68 µM	> 100 µM								
CC(Oc1ccccc1Cl)C(=O)NN1C(=O)CC(=O)N(c2ccc(Cl)cc2)C1=S (stereo not drawn)	> 100 µM	> 100 µM	> 100 µM	> 100 µM	90.4 µM	> 100 µM	> 100 µM	> 100 µM	> 100 µM	> 100 µM	> 100 µM								
COc1cccc(C23CCN(C)C(CC(O)C2)C3)c1OC (stereo not drawn)	> 100 µM	> 100 µM	> 100 µM	> 100 µM		> 100 µM	> 100 µM	> 100 µM	> 100 µM	> 100 µM									
C/C(C=O)=C/[C@@]1(C)O[C@@H](C)[C@@](C)(O)[C@@H]1O	> 100 µM	> 100 µM	> 100 µM	> 100 µM	> 100 µM	> 100 µM	> 100 µM	> 100 µM	> 100 µM	> 100 µM									
CN(C)c1ccc(-c2ccc(-c3ccc(C(=N)N)cn3)o2)cc1	3.39 µM	3.36 µM	3.02 µM				3.81 µM	3.6 µM	2.5 µM	3.24 µM	3 µM	1.95 µM	1.76 µM	1.62 µM	1.59 µM	2 µM	1.89 µM	1.24 µM	1.76 µM
C#C[C@]1(O)CC[C@H]2[C@@H]3CCc4cc(O)ccc4[C@H]3CC[C@@]21C	> 100 µM	> 100 µM	> 100 µM	> 100 µM	62.2 µM	69.4 µM	74.8 µM	> 100 µM		> 100 µM	42.8 µM								
COc1ccc2nc3ccc(OC)cc3c(SCCCl)c2c1	> 100 µM	> 100 µM	> 40.8 µM	> 100 µM	> 48.1 µM	> 100 µM	> 100 µM	> 100 µM	> 49.5 µM	> 100 µM	> 96.8 µM								
Cc1c(-c2ccccc2)[nH]c2cn[nH]c(=O)c12	> 100 µM	> 100 µM	> 100 µM	> 100 µM		> 100 µM	> 100 µM	> 100 µM	> 100 µM	> 100 µM									
O=[N+]([O-])c1ccc(N=Nc2c(O)[nH]c3ccccc23)c([N+](=O)[O-])c1	27.4 µM	> 100 µM	50.2 µM	20.7 µM	31.5 µM	25.8 µM	25.1 µM	24.2 µM	> 100 µM	13.9 µM	72.3 µM								
Cc1ccc(-c2cc(-c3ccc(Cl)cc3)nc(/N=C3\C(=O)N(CN(C)C)c4ccccc43)n2)cc1	> 100 µM	> 100 µM	> 100 µM	> 100 µM	63.9 µM	> 100 µM	> 100 µM	> 100 µM	32.1 µM	> 100 µM	> 100 µM								
O=C1c2c(Br)sc(Br)c2[C@@H](O)[C@H]1O	> 100 µM	41 µM	36.6 µM	34 µM	30 µM	21 µM	35.1 µM	35.7 µM	25.8 µM	6.25 µM	31.6 µM								
